Test results: patent US6613718B2, “Aryl ether derivatives and processes for their preparation and herbicidal and desiccant compositions containing them” (Ishihara Sangyo Kaisha, Ltd., priority 2001, dated 2003)

Legend:
Type in all cases: in vivo
[1] = tested on: soybean (Glycine max L., var. Pella 86, SOY); experiment: Post-emerge greenhouse screening, crop safety (phytotoxicity rating); settings: 14 days after application
How it was run: (§1)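 Plants grown in sandy loam pots received acetone solutions of compound by moving-nozzle track sprayer, 15–1000 g ai/ha. In post-emergence runs the foliage was at the 2-3 leaf stage and spray contained 0.25% v/v non-ionic surfactant. Damage was assessed visually after 14 days (0-100).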

[2] = tested on: upland rice (Oryza sp., var.Tebonnet, RICE); experiment: as above; settings: 14 days after application
How it was run: as §1

[3] = tested on: green foxtail (Setaria viridis, SETVI); experiment: Pre-emerge greenhouse herbicide activity screening, phytotoxicity rating; settings: 14 days after application
How it was run: as §1

[4] = tested on: common ragweed (Ambrosia artemisiifolia L., AMBEL); experiment: as above; settings: 14 days after application
How it was run: as §1

[5] = tested on: johnsongrass (Sorghum halepense, SORHA); experiment: as above; settings: 14 days after application
How it was run: as §1

[6] = tested on: lambsquarters (Chenopodium album, CHEAL); experiment: as above; settings: 14 days after application
How it was run: as §1

[7] = tested on: redroot pigweed (Amaranthus retroflexus, AMARE); experiment: as above; settings: 14 days after application
How it was run: as §1

[8] = tested on: barnyardgrass (Echinochloa crus-galli, ECHCG); experiment: as above; settings: 14 days after application
How it was run: as §1

[9] = tested on: sicklepod (Cassia obtusifolia, CASOB); experiment: as above; settings: 14 days after application
How it was run: as §1

[10] = tested on: velvetleaf (Abutilon theophrasti, ABUTH); experiment: as above; settings: 14 days after application
How it was run: as §1

[11] = tested on: ivyleaf morningglory (Ipomoea hederacea, IPOHE); experiment: as above; settings: 14 days after application
How it was run: as §1

[12] = tested on: large crabgrass (Digitaria sanguinalis, DIGSA); experiment: as above; settings: 14 days after application
How it was run: as §1

[13] = tested on: green foxtail (Setaria viridis, SETVI); experiment: Post-emerge greenhouse herbicide activity screening, phytotoxicity rating
How it was run: as §1

[14] = tested on: common ragweed (Ambrosia artemisiifolia L., AMBEL); experiment: as above
How it was run: as §1

[15] = tested on: johnsongrass (Sorghum halepense, SORHA); experiment: as above; settings: 14 days after application
How it was run: as §1

[16] = tested on: lambsquarters (Chenopodium album, CHEAL); experiment: as above
How it was run: as §1

[17] = tested on: redroot pigweed (Amaranthus retroflexus, AMARE); experiment: as above
How it was run: as §1

[18] = tested on: barnyardgrass (Echinochloa crus-galli, ECHCG); experiment: as above; settings: 14 days after application
How it was run: as §1

[19] = tested on: sicklepod (Cassia obtusifolia, CASOB); experiment: as above
How it was run: as §1

[20] = tested on: velvetleaf (Abutilon theophrasti, ABUTH); experiment: as above; settings: 14 days after application
How it was run: as §1

[21] = tested on: ivyleaf morningglory (Ipomoea hederacea, IPOHE); experiment: as above; settings: 14 days after application
How it was run: as §1

[22] = tested on: large crabgrass (Digitaria sanguinalis, DIGSA); experiment: as above; settings: 14 days after application
How it was run: as §1

[23] = tested on: soybean (Glycine max L., var. Pella 86, SOY); experiment: Pre-emerge greenhouse screening, crop safety (phytotoxicity rating); settings: 14 days after application
How it was run: as §1

[24] = tested on: field corn (Zea mays L., var. Dekalb 535, CORN); experiment: as above; settings: 14 days after application
How it was run: as §1

[25] = tested on: upland rice (Oryza sp., var.Tebonnet, RICE); experiment: as above; settings: 14 days after application
How it was run: as §1

[26] = tested on: field corn (Zea mays L., var. Dekalb 535, CORN); experiment: Post-emerge greenhouse screening, crop safety / corn selectivity (phytotoxicity rating); settings: 14 days after application
How it was run: as §1

[27] = 125 g ai/ha, 14 days after application
[28] = 250 g ai/ha, 14 days after application

SMILES: Cn1c(C(F)(F)F)cc(=O)n(-c2cc(Oc3ccccc3N)c(Cl)cc2F)c1=S [Compound 1-48]
- SOY crop damage, phytotoxicity rating (0-100 scale) ([1]; 125 g ai/ha): 0
- SOY crop damage, phytotoxicity rating (0-100 scale) ([1]; 250 g ai/ha): 0
- RICE crop damage, phytotoxicity rating (0-100 scale) ([2]; 125 g ai/ha): 0
- RICE crop damage, phytotoxicity rating (0-100 scale) ([2]; 250 g ai/ha): 35
- SETVI phytotoxicity rating (0-100 scale) ([3]; 125 g ai/ha): 90
- SETVI phytotoxicity rating (0-100 scale) ([3]; 250 g ai/ha): 99
- AMBEL phytotoxicity rating (0-100 scale) ([4]; 125 g ai/ha): 70
- AMBEL phytotoxicity rating (0-100 scale) ([4]; 250 g ai/ha): 70
- SORHA phytotoxicity rating (0-100 scale) ([5]; 125 g ai/ha): 55
- SORHA phytotoxicity rating (0-100 scale) ([5]; 250 g ai/ha): 85
- CHEAL phytotoxicity rating (0-100 scale) ([6]; 125 g ai/ha): 100
- CHEAL phytotoxicity rating (0-100 scale) ([6]; 250 g ai/ha): 100
- AMARE phytotoxicity rating (0-100 scale) ([7]; 125 g ai/ha): 100
- AMARE phytotoxicity rating (0-100 scale) ([7]; 250 g ai/ha): 100
- ECHCG phytotoxicity rating (0-100 scale) ([8]; 125 g ai/ha): 80
- ECHCG phytotoxicity rating (0-100 scale) ([8]; 250 g ai/ha): 85
- CASOB phytotoxicity rating (0-100 scale) ([9]; 125 g ai/ha): 0
- CASOB phytotoxicity rating (0-100 scale) ([9]; 250 g ai/ha): 0
- ABUTH phytotoxicity rating (0-100 scale) ([10]; 125 g ai/ha): 90
- ABUTH phytotoxicity rating (0-100 scale) ([10]; 250 g ai/ha): 100
- IPOHE phytotoxicity rating (0-100 scale) ([11]; 125 g ai/ha): 80
- IPOHE phytotoxicity rating (0-100 scale) ([11]; 250 g ai/ha): 100
- DIGSA phytotoxicity rating (0-100 scale) ([12]; 125 g ai/ha): 55
- DIGSA phytotoxicity rating (0-100 scale) ([12]; 250 g ai/ha): 75
- SETVI phytotoxicity rating (0-100 scale) ([13]; 31.3 g ai/ha): 0
- SETVI phytotoxicity rating (0-100 scale) ([13]; 62.5 g ai/ha): 30
- SETVI phytotoxicity rating (0-100 scale) [13, 27]: 50
- SETVI phytotoxicity rating (0-100 scale) [13, 28]: 60
- AMBEL phytotoxicity rating (0-100 scale) ([14]; 31.3 g ai/ha): 60
- AMBEL phytotoxicity rating (0-100 scale) ([14]; 62.5 g ai/ha): 50
- AMBEL phytotoxicity rating (0-100 scale) [14, 27]: 60
- AMBEL phytotoxicity rating (0-100 scale) [14, 28]: 75
- SORHA phytotoxicity rating (0-100 scale) ([15]; 125 g ai/ha): 0
- SORHA phytotoxicity rating (0-100 scale) ([15]; 250 g ai/ha): 0
- CHEAL phytotoxicity rating (0-100 scale) ([16]; 31.3 g ai/ha): 80
- CHEAL phytotoxicity rating (0-100 scale) ([16]; 62.5 g ai/ha): 99
- CHEAL phytotoxicity rating (0-100 scale) [16, 27]: 100
- CHEAL phytotoxicity rating (0-100 scale) [16, 28]: 100
- AMARE phytotoxicity rating (0-100 scale) ([17]; 31.3 g ai/ha): 100
- AMARE phytotoxicity rating (0-100 scale) ([17]; 62.5 g ai/ha): 100
- AMARE phytotoxicity rating (0-100 scale) [17, 27]: 100
- AMARE phytotoxicity rating (0-100 scale) [17, 28]: 100
- ECHCG phytotoxicity rating (0-100 scale) ([18]; 125 g ai/ha): 0
- ECHCG phytotoxicity rating (0-100 scale) ([18]; 250 g ai/ha): 0
- CASOB phytotoxicity rating (0-100 scale) ([19]; 31.3 g ai/ha): 50
- CASOB phytotoxicity rating (0-100 scale) ([19]; 62.5 g ai/ha): 75
- CASOB phytotoxicity rating (0-100 scale) [19, 27]: 75
- CASOB phytotoxicity rating (0-100 scale) [19, 28]: 75
- ABUTH phytotoxicity rating (0-100 scale) ([20]; 125 g ai/ha): 85
- ABUTH phytotoxicity rating (0-100 scale) ([20]; 250 g ai/ha): 95
- IPOHE phytotoxicity rating (0-100 scale) ([21]; 125 g ai/ha): 80
- IPOHE phytotoxicity rating (0-100 scale) ([21]; 250 g ai/ha): 75
- DIGSA phytotoxicity rating (0-100 scale) ([22]; 125 g ai/ha): 25
- DIGSA phytotoxicity rating (0-100 scale) ([22]; 250 g ai/ha): 50
- SOY crop damage, phytotoxicity rating (0-100 scale) ([23]; 125 g ai/ha): 0
- SOY crop damage, phytotoxicity rating (0-100 scale) ([23]; 250 g ai/ha): 0
- CORN crop damage, phytotoxicity rating (0-100 scale) ([24]; 125 g ai/ha): 0
- CORN crop damage, phytotoxicity rating (0-100 scale) ([24]; 250 g ai/ha): 5
- RICE crop damage, phytotoxicity rating (0-100 scale) ([25]; 125 g ai/ha): 0
- RICE crop damage, phytotoxicity rating (0-100 scale) ([25]; 250 g ai/ha): 8
- CORN crop damage, phytotoxicity rating (0-100 scale) ([26]; 125 g ai/ha): 0
- CORN crop damage, phytotoxicity rating (0-100 scale) ([26]; 250 g ai/ha): 10
